Reference: PubChem BioAssay AID1053132 (The Scripps Research Institute Molecular Screening Center, 2014)
pIC50: −log10 of the molar value. Active and inactive are the calls of the source. How the calls were made is not given here.

Target: methionyl-tRNA synthetase (Trypanosoma brucei brucei)
Assay: inhibition of trypanosomal methionyl-tRNA synthetase – biochemical, luminescence, dose response, round 3, late-stage follow-up (AID 1053132)
Settings: recombinant T. brucei MetRS, luminescence (ATP consumption)

Row | IC50 | pIC50 | Compound
1 | > 119000 nM (inactive) |  | CCN(CC)C(=O)Cc1cn(CC(=O)Nc2cccc(C(F)(F)F)c2)c2ccccc12
2 |  | 5.60 | Nc1c(Cl)ncnc1Nc1ccc(C(=O)O)cc1
3 | > 119000 nM (inactive) |  | CCN(CC)C(=O)C(=O)c1cn(CCNc2cccc(C(F)(F)F)c2)c2ccccc12
4 | inactive |  | CCN(CC)C(=O)C(=O)c1cn(CCNc2cc(Oc3ccccc3)cc(C(F)(F)F)c2)c2ccccc12
5 |  | 6.73 | CCN(CC)C(=O)C(=O)c1cn(CC(=O)Nc2cc(Oc3ccc(F)cc3)cc(C(F)(F)F)c2)c2ccccc12
6 |  | 6.79 | CCN(CC)C(=O)C(=O)c1cn(CC(=O)Nc2cc(Oc3ccccc3OC)cc(C(F)(F)F)c2)c2ccccc12
7 |  | 6.88 | CCN(CC)C(=O)C(=O)c1cn(CC(=O)Nc2cc(Oc3ccccc3F)cc(C(F)(F)F)c2)c2ccccc12
8 |  | 7.24 | CCN(CC)C(=O)C(=O)c1cn(CC(=O)Nc2cc(Oc3ccccc3)cc(C(F)(F)F)c2)c2ccccc12
9 | inactive |  | O=C(Cn1cc(C(=O)C(=O)NCc2ccccc2)c2ccccc21)Nc1cc(Oc2ccccc2)cc(C(F)(F)F)c1
10 |  | 6.89 | CCN(CC)C(=O)C(=O)c1cn(CC(=O)Nc2cccc(C(F)(F)F)c2)c2ccccc12
11 |  | 6.77 | CCN(CC)C(=O)C(=O)c1cn(CC(=O)Nc2cc(Oc3ccc(OC)cc3)cc(C(F)(F)F)c2)c2ccccc12
12 | inactive |  | O=C(Cc1ccc(Nc2nc3ccc(Br)cc3[nH]2)cc1)NCCc1cccs1
